This is an account of results in PubChem BioAssay AID208 (DTP/NCI, 2004).

This test has as its system HT29 intrarenal xenograft, nude mice, tumor weight change. The test is described as follows: NCI In Vivo Anticancer Drug Screen. Data for tumor model HT29;CX-1 Human Adenocarcinoma (MER+) (intrarenal inoculation) in NU/NU BALB/C (nude) mice. Particulars: endpoint: mean tumor weight change, higher = larger tumour. The procedure:
The antitumor activity of compounds was measured in mice bearing transplantable tumors. Survival or tumor size were measured and the results are expressed as the measurement made in the treated group (T) divided by the measurement made in the vehicle treated control group (C). The tumor model used in this assay is HT29;CX-1 Human Adenocarcinoma (MER+) (intrarenal inoculation) in NU/NU BALB/C (nude) mice

[1] abbreviates: dose: 37.5 mg/kg/injection, schedule: Q04DX004 (sc), vehicle: saline.
Setting [2] is: dose: 75.0 mg/kg/injection, schedule: Q04DX004 (sc), vehicle: saline.
Where [3] appears, read: dose: 5.0 mg/kg/injection, schedule: Q04DX004 (sc), vehicle: saline.
[4] abbreviates: dose: 300.0 mg/kg/injection, schedule: Q04DX004 (sc), vehicle: saline.
The mark [5] stands for this setting: dose: 600.0 mg/kg/injection, schedule: Q04DX004 (sc), vehicle: saline.
Where [6] appears, read: dose: 100.0 mg/kg/injection, schedule: Q04DX004 (sc), vehicle: saline with Tween-80.
Setting [7] is: dose: 200.0 mg/kg/injection, schedule: Q04DX004 (sc), vehicle: saline with Tween-80.
Setting [8] is: dose: 400.0 mg/kg/injection, schedule: Q04DX004 (sc), vehicle: saline with Tween-80.
Where [9] appears, read: dose: 300.0 mg/kg/injection, schedule: Q04DX004 (sc), vehicle: saline with Tween-80.

Several values for one entry are separate records, joined by “and”; a condition that tells them apart may be missing. Equal entries are not always repeated. Records with an inconclusive call do not appear. *1 amine or outer side, *2 acyl side, *3 side chain or, on linkers, in order; H or OH if unused. Where a SMILES comes first, the peptide text is derived from it. Bridges are numbered along the chain shown (N, C = ends). Roman numbers before positions name the chains, in order. [ ]: non-standard residue; d: D form. Actinocin(9to1) = Cc1c2oc3c(C)ccc(C(=O)[*:1])c3nc-2c(C(=O)[*:2])c(N)c1=O; aThr = C[C@H](O)[C@H](N)C(=O)O; NMeV = CN[C@H](C(=O)O)C(C)C; Sar = CNCC(=O)O

As to `CO[C@H]1C[C@@H]2CC[C@@H](C)[C@@](O)(O2)C(=O)C(=O)N2CCCC[C@H]2C(=O)O[C@H]([C@H](C)C[C@@H]2CC[C@@H](O)[C@H](OC)C2)CC(=O)[C@H](C)C=C(C)[C@@H](O)[C@@H](OC)C(=O)[C@H](C)C[C@H](C)/C=C/C=C/C=C1C`, the T/C (dose: 200.0 mg/kg/injection, schedule: Q01DX010 (sc), vehicle: saline with Tween-80) was 84 % of control; the T/C (dose: 400.0 mg/kg/injection, schedule: Q01DX010 (sc), vehicle: saline with Tween-80) was 40 % of control; the T/C (dose: 800.0 mg/kg/injection, schedule: Q01DX010 (sc), vehicle: saline with Tween-80) is 59 % of control; the T/C (dose: 1600.0 mg/kg/injection, schedule: Q01DX010 (sc), vehicle: saline with Tween-80) is 25 % of control.
`COC1/C=C/C=C(/C)Cc2cc(O)c(Cl)c(c2)N(C)C(=O)CC(OC(=O)C(C)C)C2(C)OC2C(C)C2CC1(O)NC(=O)O2` (stereo not drawn): the T/C (dose: 2.0 mg/kg/injection, schedule: Q04DX004 (sc), vehicle: saline + alcohol) is 82 % of control; the T/C (dose: 4.0 mg/kg/injection, schedule: Q04DX004 (sc), vehicle: saline + alcohol) is 98 % of control; the T/C (dose: 8.0 mg/kg/injection, schedule: Q04DX004 (sc), vehicle: saline + alcohol) was 72 % of control.
`c1ccc2c(c1)[As]=c1ccccc1=[As]2` (stereo not drawn): the T/C reads like this: (dose: 9.38 mg/kg/injection, schedule: Q04DX004 (sc), vehicle: saline) 113 % of control; (dose: 18.72 mg/kg/injection, schedule: Q04DX004 (sc), vehicle: saline) 86 % of control; under setting [1], 107 % of control; under setting [2], 70 % of control.
On to `NC(Cc1ccc(N(CCCl)CCCl)cc1)C(=O)O` (stereo not drawn), for which the T/C is, setting by setting: under setting [3], 46 % of control; (dose: 10.0 mg/kg/injection, schedule: Q04DX004 (sc), vehicle: saline) 106 % of control; (dose: 20.0 mg/kg/injection, schedule: Q04DX004 (sc), vehicle: saline) 47 % of control.
Take `OCC1OC(n2cnc3c(=S)nc[nH]c32)C(O)C1O` (stereo not drawn): the T/C runs as follows: (dose: 150.0 mg/kg/injection, schedule: Q04DX004 (sc), vehicle: saline) 91 % of control; under setting [4], 173 % of control; under setting [5], 103 % of control.
Turning to `CNc1nc(NC)nc(NC)n1`, the T/C (dose: 12.5 mg/kg/injection, schedule: Q01DX010 (sc), vehicle: Klucel (hydroxypropylcellulose) (HPC)) is 154 % of control and the T/C (dose: 50.0 mg/kg/injection, schedule: Q01DX010 (sc), vehicle: Klucel (hydroxypropylcellulose) (HPC)) is 73 % of control.
Turning to `CCCC(=O)OCc1cc(=O)n(C)c2c3c4c(cc12)c(C)cc(=O)n4CO3`, the T/C runs as follows: (dose: 100.0 mg/kg/injection, schedule: Q01DX010 (sc), vehicle: Klucel (hydroxypropylcellulose) (HPC)) 40 % of control; (dose: 200.0 mg/kg/injection, schedule: Q01DX010 (sc), vehicle: Klucel (hydroxypropylcellulose) (HPC)) 43 % of control; (dose: 400.0 mg/kg/injection, schedule: Q01DX010 (sc), vehicle: Klucel (hydroxypropylcellulose) (HPC)) 56 % of control; (dose: 800.0 mg/kg/injection, schedule: Q01DX010 (sc), vehicle: Klucel (hydroxypropylcellulose) (HPC)) 27 % of control.
On to `O=P(O)(NCCCl)NCCCl`, for which the T/C reads like this: under setting [1], 54 % of control and 61 % of control; under setting [2], 71 % of control and 80 % of control.
Consider `O=c1c(O)c(-c2cc(O)c(O)c(O)c2)oc2cc(O)cc(O)c12`, for which the T/C is 105 % of control (dose: 1.5 mg/kg/injection, schedule: Q04DX004 (sc), vehicle: saline with Tween-80); 114 % of control (dose: 3.0 mg/kg/injection, schedule: Q04DX004 (sc), vehicle: saline with Tween-80); 107 % of control (dose: 6.0 mg/kg/injection, schedule: Q04DX004 (sc), vehicle: saline with Tween-80); 106 % of control (dose: 12.0 mg/kg/injection, schedule: Q04DX004 (sc), vehicle: saline with Tween-80); 63 % of control (dose: 50.0 mg/kg/injection, schedule: Q04DX004 (sc), vehicle: saline with Tween-80); 73 % of control under setting [6]. For the same compound, the T/C by setting is: under setting [7], 77 % of control; under setting [8], 103 % of control.
For the compound `CCc1ccc(C2=C(O)C(=O)C(c3ccc(CC)cc3)=C(O)C2=O)cc1`, the T/C is, setting by setting: under setting [6], 112 % of control; under setting [7], 91 % of control; under setting [8], 102 % of control.
For `c1ccc2c(c1)nnn1c3cnccc3nc21`, the T/C (dose: 50.0 mg/kg/injection, schedule: Q01DX010 (sc), vehicle: saline with Tween-80) is 246 % of control and the T/C (dose: 100.0 mg/kg/injection, schedule: Q01DX010 (sc), vehicle: saline with Tween-80) was 65 % of control.
Regarding `NCCCNCCSP(=O)(O)O`, for the setting “dose: 200.0 mg/kg/injection, schedule: Q04DX004 (sc), vehicle: saline”, the T/C was 102 % of control.
Turning to `Cc1ccc(S(=O)(=O)N/N=C/C(Br)=C(/Br)C(=O)O)cc1`, the T/C (dose: 1.25 mg/kg/injection, schedule: Q04DX004 (sc), vehicle: saline) is 103 % of control; the T/C (dose: 2.5 mg/kg/injection, schedule: Q04DX004 (sc), vehicle: saline) was 78 % of control; the T/C under setting [3] is 105 % of control.
`N#CC(OC1OC(COC2OC(CO)C(O)C(O)C2O)C(O)C(O)C1O)c1ccccc1` (stereo not drawn): the T/C runs as follows: under setting [4], 95 % of control; under setting [5], 96 % of control; (dose: 1200.0 mg/kg/injection, schedule: Q04DX004 (sc), vehicle: saline) 88 % of control; (dose: 2400.0 mg/kg/injection, schedule: Q04DX004 (sc), vehicle: saline) 94 % of control.
Consider `CC(O)CCC(=O)c1ccoc1` (stereo not drawn), for which the T/C is 97 % of control (dose: 3.75 mg/kg/injection, schedule: Q01DX010 (ip), vehicle: saline); 88 % of control (dose: 7.5 mg/kg/injection, schedule: Q01DX010 (ip), vehicle: saline); 108 % of control (dose: 15.0 mg/kg/injection, schedule: Q01DX010 (ip), vehicle: saline); 89 % of control (dose: 30.0 mg/kg/injection, schedule: Q01DX010 (ip), vehicle: saline).
Regarding `CCNC(C)(C)C(SSS)c1ccco1` (stereo not drawn), the T/C (dose: 75.0 mg/kg/injection, schedule: Q04DX004 (sc), vehicle: saline with Tween-80) is 121 % of control; the T/C (dose: 150.0 mg/kg/injection, schedule: Q04DX004 (sc), vehicle: saline with Tween-80) is 119 % of control; the T/C under setting [9] was 91 % of control.
For the compound `CNC(=O)ON(C(C)=O)C(=O)NC`, the T/C runs as follows: (dose: 25.0 mg/kg/injection, schedule: Q04DX004 (sc), vehicle: saline) 114 % of control; (dose: 50.0 mg/kg/injection, schedule: Q04DX004 (sc), vehicle: saline) 80 % of control; (dose: 100.0 mg/kg/injection, schedule: Q04DX004 (sc), vehicle: saline) 56 % of control.
Turning to `Nc1nc(-c2ccccc2)c(Br)c(=O)[nH]1`, the T/C under setting [9] is 124 % of control; the T/C (dose: 600.0 mg/kg/injection, schedule: Q04DX004 (sc), vehicle: saline with Tween-80) was 117 % of control; the T/C (dose: 2400.0 mg/kg/injection, schedule: Q04DX004 (sc), vehicle: saline with Tween-80) is 102 % of control.
`CC1CCC(n2cnc3c(Cl)ncnc32)O1` (stereo not drawn): the T/C reads like this: (dose: 150.0 mg/kg/injection, schedule: Q04DX004 (sc), vehicle: Klucel (hydroxypropylcellulose) (HPC)) 76 % of control; (dose: 300.0 mg/kg/injection, schedule: Q04DX004 (sc), vehicle: Klucel (hydroxypropylcellulose) (HPC)) 80 % of control; (dose: 600.0 mg/kg/injection, schedule: Q04DX004 (sc), vehicle: Klucel (hydroxypropylcellulose) (HPC)) 64 % of control.
`CC(=O)Oc1ccc[nH]c1=O`: the T/C is, setting by setting: under setting [7], 88 % of control; under setting [8], 104 % of control; (dose: 800.0 mg/kg/injection, schedule: Q04DX004 (sc), vehicle: saline with Tween-80) 122 % of control.
Regarding `Cc1c2oc3c(C)ccc(C(=O)N[C@@H]4C(=O)N[C@H](C(C)C)C(=O)N5CCC[C@H]5C(=O)N(C)CC(=O)N(C)[C@@H](C(C)C)C(=O)O[C@H]4C)c3nc-2c(C(=O)N[C@@H]2C(=O)N[C@H](C(C)C)C(=O)N3CCC[C@H]3C(=O)N(C)CC(=O)N(C)[C@@H](C(C)C)C(=O)O[C@H]2C)c(N)c1=O` (I: [aThr][dV]P[Sar][NMeV] / II: [aThr][dV]P[Sar][NMeV]; ester I:1-I:C, II:1-II:C; linker I:N-II:N via Actinocin(9to1)), the T/C is, setting by setting: (dose: 0.03 mg/kg/injection, schedule: Q04DX004 (ip), vehicle: saline) 77 % of control; (dose: 0.05 mg/kg/injection, schedule: Q04DX004 (ip), vehicle: saline) 77 % of control; (dose: 0.08 mg/kg/injection, schedule: Q04DX004 (ip), vehicle: saline) 97 % of control.
